# Reference: ChEMBL document CHEMBL3885881, “DrugMatrix”
# How the values were obtained:
# Rattus norvegicus [1] = species on record: Rattus norvegicus; format: toxicity, organism-based, Sprague-Dawley; conditions: in vivo, po, 60 mg/kg, 24 h, route oral GAVAGE, dose level High, time 1 day, vehicle 100 % WATER
# Description: DrugMatrix - Regimen: Single
# Rattus norvegicus [2] = species on record: Rattus norvegicus; experiment: DrugMatrix - Regimen: Daily Repeat; format: toxicity, organism-based, Sprague-Dawley; design: regimen Daily Repeat, gender Male, age 6-8 weeks; conditions: in vivo, po, 60 mg/kg, 72 h, route oral GAVAGE, dose level High, time 3 day, vehicle 100 % WATER
structure (smiles),measurement,setting,value
"Nc1ccc(O)c(N)c1 [2,4-DIAMINOPHENOL]",ABSOLUTE EOSINOPHIL,Rattus norvegicus [1]; tissue Blood,80.67 CELLS/uL
same,ABSOLUTE LYMPHOCYTE,Rattus norvegicus [1]; tissue Blood,10585.67 CELLS/uL
same,ABSOLUTE MONOCYTE,Rattus norvegicus [1]; tissue Blood,630.67 CELLS/uL
same,ABSOLUTE SEGMENTED NEUTROPHIL,Rattus norvegicus [1]; tissue Blood,1169.67 CELLS/uL
same,BASOPHIL,Rattus norvegicus [1]; tissue Blood,0%
same,EOSINOPHIL,Rattus norvegicus [1]; tissue Blood,0.67%
same,ERYTHROCYTE COUNT,Rattus norvegicus [1]; tissue Blood,4.98 x10E6/uL
same,HEMATOCRIT,Rattus norvegicus [1]; tissue Blood,31.37%
same,HEMOGLOBIN,Rattus norvegicus [1]; tissue Blood,11.7 G/DL
same,LEUKOCYTE COUNT,Rattus norvegicus [1]; tissue Blood,12.47 x10E3/uL
same,LYMPHOCYTE,Rattus norvegicus [1]; tissue Blood,85%
same,MEAN CORPUSCULAR HEMOGLOBIN,Rattus norvegicus [1]; tissue Blood,23.63 pg
same,MEAN CORPUSCULAR HEMOGLOBIN CONCENTRATION,Rattus norvegicus [1]; tissue Blood,37.37 G/DL
same,MEAN CORPUSCULAR VOLUME,Rattus norvegicus [1]; tissue Blood,63.17 fL
same,MONOCYTE,Rattus norvegicus [1]; tissue Blood,5%
same,NEUTROPHIL,Rattus norvegicus [1]; tissue Blood,9.33%
same,NUCLEATED RED BLOOD CELLS,Rattus norvegicus [1]; tissue Blood,0 /100WBC
same,PLATELET COUNT,Rattus norvegicus [1]; tissue Blood,963 x10E3/uL
same,ALANINE AMINOTRANSFERASE,Rattus norvegicus [1]; tissue Plasma,60.67 u/L
same,ALBUMIN,Rattus norvegicus [1]; tissue Plasma,4.43 G/DL
same,ALKALINE PHOSPHATASE,Rattus norvegicus [1]; tissue Plasma,366.33 u/L
same,ASPARTATE AMINOTRANSFERASE,Rattus norvegicus [1]; tissue Plasma,78.33 u/L
same,BLOOD UREA NITROGEN,Rattus norvegicus [1]; tissue Plasma,12 mg/dL
same,CARBON DIOXIDE,Rattus norvegicus [1]; tissue Plasma,27 mmol/L
same,CHLORIDE,Rattus norvegicus [1]; tissue Plasma,103.33 MEQ/L
same,CHOLESTEROL,Rattus norvegicus [1]; tissue Plasma,77.33 mg/dL
same,CREATININE,Rattus norvegicus [1]; tissue Plasma,0.13 mg/dL
same,GLUCOSE,Rattus norvegicus [1]; tissue Plasma,149 mg/dL
same,LACTATE DEHYDROGENASE,Rattus norvegicus [1]; tissue Plasma,159 u/L
same,LIPASE,Rattus norvegicus [1]; tissue Plasma,8 u/L
same,PHOSPHORUS,Rattus norvegicus [1]; tissue Plasma,12.77 mg/dL
same,POTASSIUM,Rattus norvegicus [1]; tissue Plasma,6.85 MEQ/L
same,SODIUM,Rattus norvegicus [1]; tissue Plasma,145.33 MEQ/L
same,TOTAL BILIRUBIN,Rattus norvegicus [1]; tissue Plasma,0.1 mg/dL
same,TOTAL PROTEIN,Rattus norvegicus [1]; tissue Plasma,6 G/DL
same,URIC ACID,Rattus norvegicus [1]; tissue Plasma,1.37 mg/dL
same,ABSOLUTE BASOPHIL,Rattus norvegicus [2]; tissue Blood,0 CELLS/uL
same,ABSOLUTE EOSINOPHIL,Rattus norvegicus [2]; tissue Blood,193.67 CELLS/uL
same,ABSOLUTE LYMPHOCYTE,Rattus norvegicus [2]; tissue Blood,11960 CELLS/uL
same,ABSOLUTE MONOCYTE,Rattus norvegicus [2]; tissue Blood,874.33 CELLS/uL
same,ABSOLUTE SEGMENTED NEUTROPHIL,Rattus norvegicus [2]; tissue Blood,1505.33 CELLS/uL
same,BASOPHIL,Rattus norvegicus [2]; tissue Blood,0%
same,EOSINOPHIL,Rattus norvegicus [2]; tissue Blood,1.33%
same,ERYTHROCYTE COUNT,Rattus norvegicus [2]; tissue Blood,5.59 x10E6/uL
same,HEMATOCRIT,Rattus norvegicus [2]; tissue Blood,34.17%
same,HEMOGLOBIN,Rattus norvegicus [2]; tissue Blood,12.63 G/DL
same,LEUKOCYTE COUNT,Rattus norvegicus [2]; tissue Blood,14.53 x10E3/uL
same,LYMPHOCYTE,Rattus norvegicus [2]; tissue Blood,82.33%
same,MEAN CORPUSCULAR HEMOGLOBIN,Rattus norvegicus [2]; tissue Blood,22.6 pg
same,MEAN CORPUSCULAR HEMOGLOBIN CONCENTRATION,Rattus norvegicus [2]; tissue Blood,36.97 G/DL
same,MEAN CORPUSCULAR VOLUME,Rattus norvegicus [2]; tissue Blood,61.1 fL
same,MONOCYTE,Rattus norvegicus [2]; tissue Blood,6%
same,NEUTROPHIL,Rattus norvegicus [2]; tissue Blood,10.33%
same,NUCLEATED RED BLOOD CELLS,Rattus norvegicus [2]; tissue Blood,0 /100WBC
same,PLATELET COUNT,Rattus norvegicus [2]; tissue Blood,1050 x10E3/uL
same,ALANINE AMINOTRANSFERASE,Rattus norvegicus [2]; tissue Plasma,72 u/L
same,ALBUMIN,Rattus norvegicus [2]; tissue Plasma,4.43 G/DL
same,ALKALINE PHOSPHATASE,Rattus norvegicus [2]; tissue Plasma,400.67 u/L
same,ASPARTATE AMINOTRANSFERASE,Rattus norvegicus [2]; tissue Plasma,94 u/L
same,BLOOD UREA NITROGEN,Rattus norvegicus [2]; tissue Plasma,17.67 mg/dL
same,CARBON DIOXIDE,Rattus norvegicus [2]; tissue Plasma,23.33 mmol/L
same,CHLORIDE,Rattus norvegicus [2]; tissue Plasma,102.67 MEQ/L
same,CHOLESTEROL,Rattus norvegicus [2]; tissue Plasma,68 mg/dL
same,CREATININE,Rattus norvegicus [2]; tissue Plasma,0.19 mg/dL
same,GLUCOSE,Rattus norvegicus [2]; tissue Plasma,165 mg/dL
same,LACTATE DEHYDROGENASE,Rattus norvegicus [2]; tissue Plasma,314.67 u/L
same,LIPASE,Rattus norvegicus [2]; tissue Plasma,8.33 u/L
same,PHOSPHORUS,Rattus norvegicus [2]; tissue Plasma,12.5 mg/dL
same,POTASSIUM,Rattus norvegicus [2]; tissue Plasma,6.48 MEQ/L
same,SODIUM,Rattus norvegicus [2]; tissue Plasma,144.2 MEQ/L
same,TOTAL BILIRUBIN,Rattus norvegicus [2]; tissue Plasma,0.23 mg/dL
same,TOTAL PROTEIN,Rattus norvegicus [2]; tissue Plasma,6 G/DL
same,URIC ACID,Rattus norvegicus [2]; tissue Plasma,1.63 mg/dL
